Measurements reported in ChEMBL document CHEMBL3259721, “Base substituted 5'-O-(N-isoleucyl)sulfamoyl nucleoside analogues as potential antibacterial agents” (Bioorg Med Chem, 2014).
Calls of active or inactive are those of the source. The rule behind the calls is not given here. Peptide text beside a SMILES is read from it. * marks the point of attachment. X6 = CC[C@H](C)[C@H](N*)C(=O)NS(=O)(=O)OC[C@H]1O[C@@H](n2cnc3c([N+](=O)[O-])cccc32)[C@H](O)[C@@H]1O; X7 = CC[C@H](C)[C@H](N*)C(=O)NS(=O)(=O)OC[C@H]1O[C@@H](n2cnc3c(=O)[nH]c(N)nc32)[C@H](O)[C@@H]1O; X3 = CC[C@H](C)[C@H](N*)C(=O)NS(=O)(=O)OC[C@H]1O[C@@H](n2ccc(=O)[nH]c2=O)[C@H](O)[C@@H]1O; X1 = CC[C@H](C)[C@H](N*)C(=O)NS(=O)(=O)OC[C@H]1O[C@@H](n2cnc3c(N)cccc32)[C@H](O)[C@@H]1O; X2 = CC[C@H](C)[C@H](N*)C(=O)NS(=O)(=O)OC[C@H]1O[C@@H](n2cnc3c(N)ncnc32)[C@H](O)[C@@H]1O; X4 = CC[C@H](C)[C@H](N*)C(=O)NS(=O)(=O)OC[C@H]1O[C@@H](n2cnc3c(O)ncnc32)[C@H](O)[C@@H]1O; X5 = CC[C@H](C)[C@H](N*)C(=O)NS(=O)(=O)OC[C@H]1O[C@@H](n2ccc(N)nc2=O)[C@H](O)[C@@H]1O; For = O=C*

Tests used:
Escherichia coli [1] = experiment: Antibacterial activity against wild type Escherichia coli assessed as growth inhibition in Luria broth at 5 mM after 8 to 18 hrs by disc diffusion method; type: functional, organism-based
[2] = molecular target: Isoleucine--tRNA ligase (Escherichia coli K-12) (UniProt P00956); experiment: Inhibition of Isoleucine-tRNA synthetase in wild type Escherichia coli S30 cell extract assessed as inhibition of [C14]isoleucine incorporation in tRNA under in vitro aminoacylation conditions at 3.13 uM by liquid scintillation counting
Isoleucine--tRNA ligase (Escherichia coli K-12), sequence (P00956 whole entry): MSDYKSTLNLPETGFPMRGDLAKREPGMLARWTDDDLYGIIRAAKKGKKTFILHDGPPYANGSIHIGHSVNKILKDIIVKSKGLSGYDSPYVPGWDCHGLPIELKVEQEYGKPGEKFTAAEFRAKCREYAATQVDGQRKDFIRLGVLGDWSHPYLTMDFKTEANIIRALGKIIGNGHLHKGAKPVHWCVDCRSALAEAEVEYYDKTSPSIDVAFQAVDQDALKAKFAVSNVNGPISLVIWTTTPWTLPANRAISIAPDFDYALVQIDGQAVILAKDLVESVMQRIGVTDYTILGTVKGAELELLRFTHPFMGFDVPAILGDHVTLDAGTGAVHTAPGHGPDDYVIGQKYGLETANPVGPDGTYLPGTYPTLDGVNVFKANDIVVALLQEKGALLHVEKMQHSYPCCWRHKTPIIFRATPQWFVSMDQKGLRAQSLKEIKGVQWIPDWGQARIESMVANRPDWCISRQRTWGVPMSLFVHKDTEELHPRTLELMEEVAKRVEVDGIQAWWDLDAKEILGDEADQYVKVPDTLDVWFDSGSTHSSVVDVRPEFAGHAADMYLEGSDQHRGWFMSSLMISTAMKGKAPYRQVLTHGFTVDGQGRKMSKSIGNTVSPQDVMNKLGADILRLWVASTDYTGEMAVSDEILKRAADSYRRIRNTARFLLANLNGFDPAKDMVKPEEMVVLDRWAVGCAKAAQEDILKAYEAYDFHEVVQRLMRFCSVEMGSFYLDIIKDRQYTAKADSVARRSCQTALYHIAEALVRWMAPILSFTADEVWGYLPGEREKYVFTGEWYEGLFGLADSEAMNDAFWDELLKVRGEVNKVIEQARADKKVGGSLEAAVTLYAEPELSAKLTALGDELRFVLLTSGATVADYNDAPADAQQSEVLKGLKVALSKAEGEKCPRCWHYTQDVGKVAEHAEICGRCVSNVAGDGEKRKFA

Escherichia coli [3] = experiment: Antibacterial activity against wild type Escherichia coli assessed as growth inhibition in Luria broth at 5 mM after 8 to 18 hrs by broth dilution test; type: functional, organism-based
Escherichia coli [4] = experiment: Antibacterial activity against wild type Escherichia coli Ara-Yej (BW39758) assessed as growth inhibition in Luria broth at 10 to 60 uM after 8 hrs by broth dilution test; type: functional, organism-based

Row | Compound | growth inhibition (GI) (Escherichia coli [1]) | inhibition [2] | growth inhibition (GI) (Escherichia coli [3]) | growth inhibition (GI) (Escherichia coli [4])
1 | CC[C@H](C)[C@H](N)C(=O)NS(=O)(=O)OC[C@H]1O[C@@H](n2cnc3c(N)ncnc32)[C@H](O)[C@@H]1O | inactive | Active | – | –
2 | CC[C@H](C)[C@H](NC(=O)[C@H](C)NC(=O)[C@H](CC(N)=O)NC(=O)CNC(=O)[C@@H](NC(=O)[C@H](CCCNC(=N)N)NC(=O)[C@H](CCSC)NC=O)[C@@H](C)O)C(=O)NS(=O)(=O)OC[C@H]1O[C@@H](n2cnc3c(N)ncnc32)[C@H](O)[C@@H]1O (For-MRTGNA-X2) | – | – | inactive | Active
3 | CC[C@H](C)[C@H](NC(=O)[C@H](C)NC(=O)[C@H](CC(N)=O)NC(=O)CNC(=O)[C@@H](NC(=O)[C@H](CCCNC(=N)N)NC(=O)[C@H](CCSC)NC=O)[C@@H](C)O)C(=O)NS(=O)(=O)OC[C@H]1O[C@@H](n2cnc3c(O)ncnc32)[C@H](O)[C@@H]1O (For-MRTGNA-X4) | – | – | inactive | Active
4 | CC[C@H](C)[C@H](NC(=O)[C@H](C)NC(=O)[C@H](CC(N)=O)NC(=O)CNC(=O)[C@@H](NC(=O)[C@H](CCCNC(=N)N)NC(=O)[C@H](CCSC)NC=O)[C@@H](C)O)C(=O)NS(=O)(=O)OC[C@H]1O[C@@H](n2ccc(=O)[nH]c2=O)[C@H](O)[C@@H]1O (For-MRTGNA-X3) | – | – | inactive | inactive
5 | CC[C@H](C)[C@H](NC(=O)[C@H](C)NC(=O)[C@H](CC(N)=O)NC(=O)CNC(=O)[C@@H](NC(=O)[C@H](CCCNC(=N)N)NC(=O)[C@H](CCSC)NC=O)[C@@H](C)O)C(=O)NS(=O)(=O)OC[C@H]1O[C@@H](n2cnc3c([N+](=O)[O-])cccc32)[C@H](O)[C@@H]1O (For-MRTGNA-X6) | – | – | inactive | –
6 | CC[C@H](C)[C@H](N)C(=O)NS(=O)(=O)OC[C@H]1O[C@@H](n2cnc3c([N+](=O)[O-])cccc32)[C@H](O)[C@@H]1O | inactive | Active | – | –
7 | CC[C@H](C)[C@H](N)C(=O)NS(=O)(=O)OC[C@H]1O[C@@H](n2ccc(N)nc2=O)[C@H](O)[C@@H]1O | inactive | Active | – | –
8 | CC[C@H](C)[C@H](N)C(=O)NS(=O)(=O)OC[C@H]1O[C@@H](n2cnc3c(N)cccc32)[C@H](O)[C@@H]1O | inactive | Active | – | –
9 | CC[C@H](C)[C@H](NC(=O)[C@H](C)NC(=O)[C@H](CC(N)=O)NC(=O)CNC(=O)[C@@H](NC(=O)[C@H](CCCNC(=N)N)NC(=O)[C@H](CCSC)NC=O)[C@@H](C)O)C(=O)NS(=O)(=O)OC[C@H]1O[C@@H](n2cnc3c(N)cccc32)[C@H](O)[C@@H]1O (For-MRTGNA-X1) | – | – | inactive | Active
10 | CC[C@H](C)[C@H](N)C(=O)NS(=O)(=O)OC[C@H]1O[C@@H](n2cnc3c(=O)[nH]c(N)nc32)[C@H](O)[C@@H]1O | inactive | Active | – | –
11 | CC[C@H](C)[C@H](N)C(=O)NS(=O)(=O)OC[C@H]1O[C@@H](n2cnc3c(O)ncnc32)[C@H](O)[C@@H]1O | inactive | Active | – | –
12 | CC[C@H](C)[C@H](NC(=O)[C@H](C)NC(=O)[C@H](CC(N)=O)NC(=O)CNC(=O)[C@@H](NC(=O)[C@H](CCCNC(=N)N)NC(=O)[C@H](CCSC)NC=O)[C@@H](C)O)C(=O)NS(=O)(=O)OC[C@H]1O[C@@H](n2cnc3c(=O)[nH]c(N)nc32)[C@H](O)[C@@H]1O (For-MRTGNA-X7) | – | – | inactive | –
13 | CC[C@H](C)[C@H](N)C(=O)NS(=O)(=O)OC[C@H]1O[C@@H](n2ccc(=O)[nH]c2=O)[C@H](O)[C@@H]1O | inactive | Active | – | –
14 | CC[C@H](C)[C@H](NC(=O)[C@H](C)NC(=O)[C@H](CC(N)=O)NC(=O)CNC(=O)[C@@H](NC(=O)[C@H](CCCNC(=N)N)NC(=O)[C@H](CCSC)NC=O)[C@@H](C)O)C(=O)NS(=O)(=O)OC[C@H]1O[C@@H](n2ccc(N)nc2=O)[C@H](O)[C@@H]1O (For-MRTGNA-X5) | – | – | inactive | –
